Test results: PubChem BioAssay AID1919003 (Molecular Pharmacology Branch, DTP, NCI, 2023)

Tested on: 786-0 complex spheroids with HUVEC/MSC, growth % test/control
Test: Anticancer human tumor 786-0 cell line growth inhibition [AhR];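 note: compound exposure lasted seven days before the read-out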
Conditions: for IC50: curve of first compound; for viability, T/C: stronger effect = lower value
Procedure, shortened: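 Complex tumor spheroids co-cultured with HUVEC and human MSC stroma; AhR antagonists tested in combination with standard-of-care and investigational agents. Top concentration at or near clinical Cmax (else 10 microM), half-log dilutions; growth expressed as percent test/control.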

[1] = second compound 0.1 µM, first compound 0.0316 µM
[2] = second compound 0.1 µM, first compound 0.1 µM
[3] = second compound 0.1 µM, first compound 0.316 µM
[4] = second compound 0.1 µM, first compound 1 µM
[5] = second compound 0.1 µM, first compound 3.16 µM
[6] = second compound 0.1 µM, first compound 10 µM
[7] = second compound 0.316 µM, first compound 0.0316 µM
[8] = second compound 0.316 µM, first compound 0.1 µM
[9] = second compound 0.316 µM, first compound 0.316 µM
[10] = second compound 0.316 µM, first compound 1 µM
[11] = second compound 0.316 µM, first compound 3.16 µM
[12] = second compound 0.316 µM, first compound 10 µM
[13] = second compound 1 µM, first compound 0.0316 µM
[14] = second compound 1 µM, first compound 0.1 µM
[15] = second compound 1 µM, first compound 0.316 µM
[16] = second compound 1 µM, first compound 1 µM
[17] = second compound 1 µM, first compound 3.16 µM
[18] = second compound 1 µM, first compound 10 µM
[19] = second compound 3.16 µM, first compound 0.0316 µM
[20] = second compound 3.16 µM, first compound 0.1 µM
[21] = second compound 3.16 µM, first compound 0.316 µM
[22] = second compound 3.16 µM, first compound 1 µM
[23] = second compound 3.16 µM, first compound 3.16 µM
[24] = second compound 3.16 µM, first compound 10 µM
[25] = second compound 10 µM, first compound 0.0316 µM
[26] = second compound 10 µM, first compound 0.1 µM
[27] = second compound 10 µM, first compound 0.316 µM
[28] = second compound 10 µM, first compound 1 µM
[29] = second compound 10 µM, first compound 3.16 µM
[30] = second compound 10 µM, first compound 10 µM
[31] = second compound 0.1 µM, first compound 0.00316 µM
[32] = second compound 0.1 µM, first compound 0.01 µM
[33] = second compound 0.316 µM, first compound 0.00316 µM
[34] = second compound 0.316 µM, first compound 0.01 µM
[35] = second compound 1 µM, first compound 0.00316 µM
[36] = second compound 1 µM, first compound 0.01 µM
[37] = second compound 3.16 µM, first compound 0.00316 µM
[38] = second compound 3.16 µM, first compound 0.01 µM
[39] = second compound 10 µM, first compound 0.00316 µM
[40] = second compound 10 µM, first compound 0.01 µM

Structure (SMILES)	IC50 (second compound 0.1 µM) [nM]	IC50 (second compound 0.316 µM) [nM]	IC50 (second compound 1 µM) [nM]	IC50 (second compound 3.16 µM) [nM]	IC50 (second compound 10 µM) [nM]	viability, T/C [1] [%]	viability, T/C [2] [%]	viability, T/C [3] [%]	viability, T/C [4] [%]	viability, T/C [7] [%]	viability, T/C [8] [%]	viability, T/C [9] [%]	viability, T/C [10] [%]	viability, T/C [13] [%]	viability, T/C [14] [%]	viability, T/C [15] [%]	viability, T/C [16] [%]	viability, T/C [19] [%]	viability, T/C [20] [%]	viability, T/C [21] [%]	also measured
CC(C)c1c(-c2ccccc2)nc2c(C#N)c[nH]n2c1=O + CC(CO)NC(=O)c1cc(-c2ccc(Cl)cc2)nn(-c2cnn(C)c2)c1=O	> 10000	> 10000	> 10000	> 10000	> 10000	98	95.9	104	106	95	101	93.2	95.1	99.9	99.1	105	104	100	96.5	97.9	viability, T/C [5]: 93.7%; viability, T/C [6]: 104%; viability, T/C [11]: 92.3%; viability, T/C [12]: 90%; viability, T/C [17]: 107%; viability, T/C [18]: 96.2%; viability, T/C [22]: 99.5%; viability, T/C [23]: 106%; viability, T/C [24]: 101%; viability, T/C [25]: 118%; viability, T/C [26]: 105%; viability, T/C [27]: 105%; viability, T/C [28]: 108%; viability, T/C [29]: 103%; viability, T/C [30]: 125%
CC1COCCN1c1cc(-c2ccnn2C)c2ccnc(-c3ccn[nH]3)c2n1 (stereo not given) + CC(CO)NC(=O)c1cc(-c2ccc(Cl)cc2)nn(-c2cnn(C)c2)c1=O	134	109	98.3	79.4	51.1	106	63.5	11.1	3.76	105	53.3	7.31	3.22	104	49	8.48	3.85	103	36.7	6.89	viability, T/C [31]: 100%; viability, T/C [32]: 100%; viability, T/C [33]: 112%; viability, T/C [34]: 103%; viability, T/C [35]: 97.6%; viability, T/C [36]: 110%; viability, T/C [37]: 112%; viability, T/C [38]: 114%; viability, T/C [22]: 3.57%; viability, T/C [39]: 116%; viability, T/C [40]: 109%; viability, T/C [25]: 78.5%; viability, T/C [26]: 10.1%; viability, T/C [27]: 2.89%; viability, T/C [28]: 2.73%
COc1ccc([C@@H](O)c2cc(-c3ncnc4cc(N5CCOCC5)ccc34)c(F)cc2Cl)nn1 + CC(CO)NC(=O)c1cc(-c2ccc(Cl)cc2)nn(-c2cnn(C)c2)c1=O	> 10000	> 10000	> 10000	> 10000	> 10000	99.5	109	111	115	102	107	118	106	110	114	110	113	102	112	114	viability, T/C [5]: 117%; viability, T/C [6]: 85.2%; viability, T/C [11]: 108%; viability, T/C [12]: 91.2%; viability, T/C [17]: 114%; viability, T/C [18]: 91.6%; viability, T/C [22]: 111%; viability, T/C [23]: 107%; viability, T/C [24]: 83.2%; viability, T/C [25]: 117%; viability, T/C [26]: 122%; viability, T/C [27]: 115%; viability, T/C [28]: 115%; viability, T/C [29]: 100%; viability, T/C [30]: 78%
COc1cc(C2c3cc4c(cc3C(OC3OC5COC(C)OC5C(O)C3O)C3COC(=O)C23)OCO4)cc(OC)c1O (stereo not given) + Cc1ccccc1N=Nc1ccc(NC(=O)c2ccnn2C)c(C)c1	937	873	1060	885	723	110	110	85.2	46.2	110	105	86.2	41.6	107	107	81.4	50.4	103	82.9	78	viability, T/C [5]: 24.2%; viability, T/C [6]: 9.45%; viability, T/C [11]: 27.5%; viability, T/C [12]: 10.3%; viability, T/C [17]: 26.8%; viability, T/C [18]: 10.3%; viability, T/C [22]: 46.4%; viability, T/C [23]: 21.1%; viability, T/C [24]: 7.16%; viability, T/C [25]: 96.8%; viability, T/C [26]: 91.7%; viability, T/C [27]: 68.4%; viability, T/C [28]: 42.6%; viability, T/C [29]: 19.4%; viability, T/C [30]: 7%
COc1cccc2c1C(=O)c1c(O)c3c(c(O)c1C2=O)CC(O)(C(=O)CO)CC3OC1CC(N)C(O)C(C)O1 (stereo not given) + Cc1ccccc1N=Nc1ccc(NC(=O)c2ccnn2C)c(C)c1	126	122	132	119	76.5	73.8	56.6	24.7	9.36	69.3	55.7	24.7	10.1	77.4	57.4	26.7	9.75	66.6	55.2	24.5	viability, T/C [5]: 1.43%; viability, T/C [6]: 1.74%; viability, T/C [11]: 2.44%; viability, T/C [12]: 3.3%; viability, T/C [17]: 1.55%; viability, T/C [18]: 1.78%; viability, T/C [22]: 9.36%; viability, T/C [23]: 1.41%; viability, T/C [24]: 1.09%; viability, T/C [25]: 57.6%; viability, T/C [26]: 48.8%; viability, T/C [27]: 22.4%; viability, T/C [28]: 9.51%; viability, T/C [29]: 1.98%; viability, T/C [30]: 1.15%
Nc1ncn(C2CC(O)C(CO)O2)c(=O)n1 (stereo not given) + Cc1ccccc1N=Nc1ccc(NC(=O)c2ccnn2C)c(C)c1	> 1000	> 1000	> 1000	> 1000	> 1000	105	101	98.3	90.6	106	99.5	96.6	92.9	105	104	95.2	94.5	100	94.9	92.8	viability, T/C [31]: 103%; viability, T/C [32]: 114%; viability, T/C [33]: 105%; viability, T/C [34]: 104%; viability, T/C [35]: 106%; viability, T/C [36]: 112%; viability, T/C [37]: 104%; viability, T/C [38]: 102%; viability, T/C [22]: 89.7%; viability, T/C [39]: 93.4%; viability, T/C [40]: 95.3%; viability, T/C [25]: 91.3%; viability, T/C [26]: 87.1%; viability, T/C [27]: 83.2%; viability, T/C [28]: 77.2%
